The text below walks through data of patent publication US9284325B2, “Spectinamides as anti-tuberculosis agents” (UNIVERSITY OF TENNESSEE RESEARCH FOUNDATION, priority 2009, dated 2016).

Values after ≈ are worked out from the molar mass of the structure shown. Where a name gives a salt, the structure may show the parent alone. Read-outs that look alike come from different tables or passages of the source.

For assay [1], the system named is M. tuberculosis H37Rv. Briefly: MIC determination by microbroth dilution, anti-tuberculosis activity. The assay is classed as cell-based, Mycobacterium tuberculosis. Background: Broth dilution looks for growth in wells or tubes with falling amounts of substance.
Assay [2] concerns S. aureus 8325 or strain ATCC 29213. In words: MIC determination by microbroth dilution. In kind it is cell-based, Staphylococcus aureus. Conditions: S. aureus 8325 or strain ATCC 29213 (for 1471-1544); for MIC: Staphylococcus aureus, ATCC29213.
The test system of assay [3] is Strep. pyogenes ATCC 700294. In words: MIC determination by microbroth dilution. Conditions: for MIC: Streptococcus pyogenes, ATCC700294, read-out: MIC S. pyogenes. In kind it is cell-based, Streptococcus pyogenes.
In assay [4] the test system is Strep. pneumoniae DAW27 or strain R6. Briefly: MIC determination by microbroth dilution. Conditions: Strep. pneumoniae DAW27 or strain R6 (for 1443-1544); for MIC: Streptococcus pneumoniae, read-out: MIC S. pneumoniae. In kind it is cell-based, Streptococcus pneumoniae.
The test system of assay [5] is E. faecalis ATCC 33186. Briefly: MIC determination by microbroth dilution. In kind it is cell-based, Enterococcus faecalis. Conditions: for MIC: Enterococcus faecalis, ATCC33186.
Assay [6] deals with B. anthracis Sterne 34F2. Briefly: microbe, parasite or virus in culture. The assay is classed as cell-based, Bacillus anthracis. Conditions: for MIC: Bacillus anthracis, STERNE34F2, read-out: MIC B. anthracis 34F2.
Assay [7] relates to Burkholderia cepacia ATCC 25416. In words: MIC determination by microbroth dilution. The assay is classed as cell-based. Conditions: for MIC: ATCC25416, read-out: MIC B. cepcia.
Assay [8] deals with Proteus mirabilis ATCC 25933. Briefly: MIC determination by microbroth dilution. In kind it is cell-based. Conditions: for MIC: ATCC25933.
Assay [9] has as its system Proteus vulgaris ATCC 33420. In words: MIC determination by microbroth dilution. The assay is classed as cell-based. Conditions: for MIC: ATCC33420.
Assay [10] relates to Klebsiella pneumoniae ATCC 33495. Briefly: MIC determination by microbroth dilution. The assay is classed as cell-based. Conditions: for MIC: ATCC33495.
The test system of assay [11] is Acinetobacter baumannii ATCC 19606. In words: MIC determination by microbroth dilution. In kind it is cell-based. Conditions: for MIC: ATCC19606.
For assay [12], the system named is P. aeruginosa PAO1. In words: MIC determination by microbroth dilution. In kind it is cell-based, Pseudomonas aeruginosa. Conditions: for MIC: Pseudomonas aeruginosa.
Assay [13] deals with Strenotrophomonas maltophilia ATCC 13637. Briefly: MIC determination by microbroth dilution. The assay is classed as cell-based.
For assay [14], the system named is E. coli K12. Briefly: MIC determination by microbroth dilution. In kind it is cell-based, Escherichia coli. Conditions: for MIC: Escherichia coli, K12.
Assay [15] deals with E. coli K12 ΔtolC. In words: microbe, parasite or virus in culture. In kind it is cell-based. Conditions: for MIC: Escherichia coli, read-out: MIC E. coli K12 ΔtolC.
For assay [16], the system named is E. coli ribosomes. In kind it is biochemical. Conditions: for IC50, 50% inhibition of luciferase biosynthesis in S30 assay: E. coli S30 transcription/translation assay; for relative inhibitory activity on luciferase production: tested at 0.66 and 6.6 μM, FIG. 5.
[17] abbreviates: Mycobacterium tuberculosis, H37RV, 168 h, read-out: MIC.

On to “3′-Dihydro-3′-deoxy-4(R)-dodecanoylamino spectinomycin Dihydrochloride [Compound 1366]”, for which, in assay [1], the MIC is 1.6 µg/mL. The “MIC S. aureus” value in assay [2] was determined as 25 µg/mL. Moreover, the “MIC S. pyogenes” value in [3] is greater than 200 µg/mL. Besides, the “MIC S. pneumoniae” value in assay [4] stood at 25 µg/mL. The “MIC E. faecalis” value in [5] is 25 µg/mL. Moreover, in assay [6], the “MIC B. anthracis 34F2” value is greater than 200 µg/mL. Also, the “MIC B. cepcia” value in assay [7] is greater than 200 µg/mL. Moreover, the “MIC P. mir” value in assay [8] is greater than 200 µg/mL. For the same compound, the “MIC P. vul” value in assay [9] is greater than 200 µg/mL. The “MIC K. pneu.” value in assay [10] is greater than 200 µg/mL. Also, the “MIC A. bau.” value in assay [11] is greater than 200 µg/mL. The “MIC P. aer.” value in assay [12] worked out at 50 µg/mL. Also, the “MIC S. mal” value in [13] stood at 25 µg/mL. For the same compound, the “MIC E. coli K12” value in assay [14] (E. coli K12) was greater than 200 µg/mL. Further, in [15] (tolC knockout strain, defective multi-drug efflux pump), the “MIC E. coli K12 ΔtolC” value worked out at 12.5 µg/mL. For the same compound, in assay [16], the “IC50, 50% inhibition of luciferase biosynthesis in S30 assay” value (“IC50, 50% inhibition” for short) stood at 15.3 µg/mL.

In the case of `CN[C@@H]1[C@H](O)[C@H](NC)C2O[C@]3(O)C(OC2[C@H]1O)O[C@H](C)C[C@H]3NC(=O)Cc1cccnc1` (stereo partly drawn) [Compound 1368, 3′-Dihydro-3′-deoxy-4(R)-(pyridin-3-yl)acetylamino spectinomycin Dihydrochloride], the MIC was 12.5 µg/mL in assay [1] (setting [17]); 50 µg/mL in assay [2]; greater than 200 µg/mL in assay [3]; greater than 200 µg/mL in [4]; greater than 200 µg/mL in assay [5]; 6.25 µg/mL in [6]. In addition, the MIC in assay [7], in [8], in assay [9], in [10], in assay [11] and in [12] was greater than 200 µg/mL in each case. Moreover, the MIC in assay [13] is greater than 200 µg/mL; in assay [14], 100 µg/mL; in [15] it was greater than 200 µg/mL. The “IC50, 50% inhibition” value in assay [16] amounted to 1.08 µg/mL.

As for `CN[C@@H]1[C@H](O)[C@H](NC)C2O[C@]3(O)C(OC2[C@H]1O)O[C@H](C)C[C@H]3NC(=O)Cc1ccc(F)cn1` (stereo partly drawn) [Compound 1445, 3′-Dihydro-3′-deoxy-4(R)-(5-fluoropyridin-2-yl)acetylamino spectinomycin trihydrobromide], the MIC in assay [1] (setting [17]) was found to be 0.4 µg/mL; in [2], 25 µg/mL; in assay [3], 12.5 µg/mL; in [4], 12.5 µg/mL; in [5], 25 µg/mL; in [6], 25 µg/mL. The MIC in assay [7] was greater than 200 µg/mL; in assay [8], greater than 200 µg/mL; in assay [9], greater than 200 µg/mL; in assay [10], 100 µg/mL; in [11], greater than 200 µg/mL; in [12] it was greater than 200 µg/mL. Besides, the MIC in assay [13] was greater than 200 µg/mL; in [14] it was 100 µg/mL; in assay [15], 200 µg/mL. Besides, the “IC50, 50% inhibition” value in assay [16] was found to be 0.25 µg/mL.

With `CN[C@@H]1[C@H](O)[C@H](NC)C2O[C@]3(O)C(OC2[C@H]1O)O[C@H](C)C[C@H]3NC(=O)Cc1nc2ccccc2o1` (stereo partly drawn) [Compound 1465, 3′-Dihydro-3′-deoxy-4(R)-(benzooxazol-2-yl)acetylamino spectinomycin trihydrobromide], the MIC in [1] (setting [17]) is 3.12 µg/mL; in assay [2] it was greater than 200 µg/mL; in [3], 12.5 µg/mL; in assay [4], 12.5 µg/mL; in assay [5] it was 100 µg/mL; in assay [6] it was 100 µg/mL. In addition, the MIC in assay [7], in [8], in [9], in assay [10], in assay [11] and in [12] was greater than 200 µg/mL in each case. Also, the results for the MIC in assay [13], in assay [14] and in assay [15] were greater than 200 µg/mL, greater than 200 µg/mL and 12.5 µg/mL, respectively. For the same compound, in assay [16], the “IC50, 50% inhibition” value stood at 0.50 µg/mL.

With `CN[C@@H]1[C@H](O)[C@H](NC)C2O[C@]3(O)C(OC2[C@H]1O)O[C@H](C)C[C@H]3NC(=O)Cc1c[nH]cn1` (stereo partly drawn) [Compound 1466, 3′-Dihydro-3′-deoxy-4(R)-(1H-imidazol-4-yl)acetylamino spectinomycin tetradrobromide], the MIC in assay [1] (setting [17]) is 6.25 µg/mL (≈ 14.2 µM); in [2] it was greater than 200 µg/mL; in [3], 25 µg/mL (≈ 56.6 µM); in [4] it was 12.5 µg/mL (≈ 28.3 µM); in assay [5] it was greater than 200 µg/mL; in [6] it was greater than 200 µg/mL. Moreover, the MIC in [7], in [8], in assay [9], in [10], in assay [11] and in assay [12] was greater than 200 µg/mL throughout. In addition, the MIC in assay [13] was greater than 200 µg/mL; in assay [14], 100 µg/mL (≈ 227 µM); in assay [15], 50 µg/mL (≈ 113 µM). Also, the “IC50, 50% inhibition” value in assay [16] is 0.57 µg/mL.

Take `CN[C@@H]1[C@H](O)[C@H](NC)C2O[C@]3(O)C(OC2[C@H]1O)O[C@H](C)C[C@H]3NCc1cccc(OC)c1` (stereo partly drawn) [Compound 1423, 3′-Dihydro-3′-deoxy-4(R)-(3-methoxy)benzylamino spectinomycin Trihydrochloride]: the MIC in [1] (setting [17]) is 200 µg/mL; in assay [2], 200 µg/mL; in assay [3] it was 25 µg/mL; in assay [4] it was 200 µg/mL; in [5], greater than 200 µg/mL; in [6], 200 µg/mL. Further, the MIC in assay [7], in assay [8], in [9], in [10], in assay [11] and in assay [12] was greater than 200 µg/mL throughout. In addition, the MIC in assay [13] is greater than 200 µg/mL; in assay [14] it was 200 µg/mL; in [15] it was 100 µg/mL. In assay [16], the “relative inhibitory activity on luciferase production” value (shortened to “relative inhibitory activity”) is recorded as “inhibited well”.

On to `CN[C@@H]1[C@H](O)[C@H](NC)C2O[C@]3(O)C(OC2[C@H]1O)O[C@H](C)C[C@H]3NCc1ccc(C)cc1` (stereo partly drawn) [Compound 1425, 3′-Dihydro-3′-deoxy-4(R)-(4-methyl)benzylamino spectinomycin Trihydrochloride], for which the MIC in [1] (setting [17]) turned out to be 1000 µg/mL; in assay [2], 50 µg/mL; in assay [3], 12.5 µg/mL; in [4], 100 µg/mL; in assay [5], 100 µg/mL; in [6], 100 µg/mL. In addition, the MIC in assay [7] is greater than 200 µg/mL; in [8], greater than 200 µg/mL; in assay [9], greater than 200 µg/mL; in [10] it was greater than 200 µg/mL; in assay [11], greater than 200 µg/mL; in assay [12], 200 µg/mL. For the same compound, the MIC in assay [13] is greater than 200 µg/mL; in assay [14], 200 µg/mL; in assay [15] it was 100 µg/mL. In addition, the “relative inhibitory activity” value in assay [16] was “inhibited well”.

As to `CN[C@@H]1[C@H](O)[C@H](NC)C2O[C@]3(O)C(OC2[C@H]1O)O[C@H](C)C[C@H]3NC(=O)CC(C)C` (stereo partly drawn) [Compound 1369, 3′-Dihydro-3′-deoxy-4(R)-(3-methyl)-butanoylamino spectinomycin Dihydrochloride], the MIC in assay [1] (setting [17]) is 200 µg/mL; in [2], greater than 200 µg/mL; in [3], greater than 200 µg/mL; in assay [4], greater than 200 µg/mL; in assay [5], greater than 200 µg/mL; in assay [6], 200 µg/mL. In addition, the MIC in assay [7], in [8], in [9], in assay [10], in [11] and in assay [12] was greater than 200 µg/mL throughout. Moreover, the MIC in assay [13], in assay [14] and in [15] was greater than 200 µg/mL each time. Besides, the “relative inhibitory activity” value in assay [16] was “less active than 1329”.
